Measurements from US20080058409A1, “Esterified Catechins, Processes for Producing the Same, and Foods and Beverages as well as Cosmetics Containing Such Esterified Catechins” (priority 2005, published 2008).

Columns and labels:
Bacillus subtilis spores = experiment: Assay of antibacterial activity (growth inhibition, absorbance at 690 nm) against Bacillus subtilis spores; type: cell-based; conditions: spores 1×10^7/ml, nutrient broth pH 7.0, cultured overnight at 37° C., percent growth inhibition from absorbance at 690 nm
Protocol: (§1) Into each well, 50 μl of a nutrient broth (pH 7.0, NISSUI PHARMACEUTICAL CO., LTD.) was added and cultured overnight at 37° C. The light absorbance at 690 nm was measured both at the start and end of the culture by means of a micro-plate reader (Thermolab Systems, Finland). Based on the percent growth inhibition calculated from the following formula, a distribution diagram was constructed plotting percent inhibition and sample concentration on the two axes and the 50% inhibition (IC50) of the spore forming bacterium by the substances of the present invention was determined. Percent growth inhibition (%)=100×{Δ690 (not added)−Δ690 (sample added)}/Δ690 (not added) where Δ690 (not added) refers to the difference between the 690 nm values in the “not-added” group before and after the culture and Δ690 (sample added) refers to the difference between the 690 nm values in the “sample-added” group before and after the culture.

[1] = tested on: Alicyclobacillus acidoterrestris; experiment: Assay of antibacterial activity (growth inhibition) against heat-resistant acidophilic spore-forming bacterium Alicyclobacillus acidoterrestris; type: cell-based; conditions: culture temperature 45° C., liquid medium (yeast extract, soluble starch, glucose) adjusted to pH 3.8
Protocol: as §1
Activity against the heat-resistant acidophilic spore-forming bacterium Alicyclobacillus acidoterrestris was determined by taking the same procedure, except that a change was made in two points, the culture temperature condition and the type of liquid medium [culture temperature: 45° C.; liquid medium: 0.4% dry yeast extract (Difco Laboratories), 0.4% soluble starch (nacalai tesque), 1% glucose (nacalai tesque), adjusted to pH 3.8 with 1 N sulfuric acid].

Compound	IC50 (ppm) B. subtilis (Bacillus subtilis spores)	IC50 (ppm) A. acidoterrestris [1]
3′(or 4′),3-di-O-octanoyl-(+)-D-catechin	3.125-6.25 ppm	6.25-12.5 ppm
3′(or 4′),5-di-O-octanoyl-(+)-D-catechin	6.25-12.5 ppm	6.25-12.5 ppm
3′(or 4′),7-di-O-octanoyl-(+)-D-catechin	6.25-12.5 ppm	50-100 ppm
3′-O-cotanoyl and 4′-octanoyl-(+)-D-catechin	200-400 ppm	25-50 ppm
CCCCCCCC(=O)Oc1cc(O)cc2c1C[C@H](OC(=O)CCCCCCC)[C@@H](c1ccc(O)c(O)c1)O2 [3,5-di-O-octanoyl-(+)-D-catechin]	100-200 ppm	50-100 ppm
CCCCCCCC(=O)Oc1cc(O)c2c(c1)O[C@H](c1ccc(O)c(O)c1)[C@@H](OC(=O)CCCCCCC)C2 [3,7-di-O-octanoyl-(+)-D-catechin]	25-50 ppm	12.5-25 ppm
CCCCCCCC(=O)Oc1ccc([C@H]2Oc3cc(O)cc(O)c3C[C@@H]2O)cc1OC(=O)CCCCCCC [3′4′-O-dioctanoyl-(+)-D-catechin]	>400 ppm	12.5-25 ppm
CCCCCCCC(=O)Oc1cc(OC(=O)CCCCCCC)c2c(c1)O[C@H](c1ccc(O)c(O)c1)[C@@H](O)C2 [5,7-di-O-octanoyl-(+)-D-catechin]	>400 ppm	100-200 ppm
Catechin [reference compound]	>400 ppm	50-100 ppm
Sucrose fatty acid ester [reference compound]	50-100 ppm	100-200 ppm
